In patent US6117859A, “Method of relieving chronic inflammation by using 5-alkylsulfonylsalicylanilides” (The Research Foundation of State University of New York, priority 1999, dated 2000):

What was measured:
[1] = tested on: ear weight gain produced by multiple doses of TPA in mice; experiment: Chronic (multiple dose) TPA mouse ear inflammation assay, ear weight gain; format: in vivo, mouse (female CD-1)
Procedure: The acute skin inflammation model described in Example 1, tests the ability of a compound to prevent inflammation and thus must be applied prophylactically. Most clinical situations, however, are present as chronic inflammatory conditions. […] The effects of the compounds of the present invention and Salifluor on chronically inflamed skin was measured in the mouse ear model that utilizes multiple TPA doses over a 10-day period to produce the inflammatory response.
The assay used female CD-1 mice (7-9 weeks of age). Following a 2-week quarantine, mice were randomly assigned to test groups (5 mice/groups). TPA (10 uL of 0.01 TPA in acetone) was administered to both the inner and outer surface of each ear (2μg/ear) on day 0,2,4,7, and 9 on protocol. On Day 7,8 and 9, two applications of test article were applied to each ear 2 and 4 hours after dosing with TPA. The test articles were administered in 10 uL aliquots to both the inner and outer surface of each ear (20 μl total/dose). […] Hydrocortisone-17-valerate (HCV, 20μg/ear) was employed as a positive control. Mice were sacrificed at Day 10 on protocol and uniform punch biopsies (approximately 8 mm dia.) were taken from each ear. While on protocol, dermal irritation was scored semiquantitatively at Day 1,3,5,8, and 10.
Inhibition of TPA stimulated increased ear weight was used as an initial measure of efficacy for all of the agents tested. One biopsy from each mouse was also quick frozen and stored at -70° C. for later assay of myleoperoxidase, an enzyme associated with infiltrating PMN, or other measure of efficacy. The remaining biopsy from each mouse treated with Trifluorosal or HCV was fixed in formalin and processed for histopathologic evaluation, including measurement of cellular infiltration (PMNs, endothelial cells, macrophages) and epidermal thickness at 20 random sites along the length of the specimen.
Initially, a dose-response curve for multiple doses of TPA to produce mouse ear weight gain was generated in order to determine the concentration of TPA to be employed in the inhibition studies. […] Another major difference between the multiple TPA dose (or chronic assay for inflammation) and the single TPA dose (or acute assay for inflammation) in the mouse ear is sensitivity to Non-steroidal antiinflammatory drugs (NSAIDs) and antihistamines.

myeloperoxidase (MPO) = experiment: Myeloperoxidase (MPO) activity in ear biopsies, acute TPA mouse ear assay; format: in vivo
Text: The anti-inflammatory effect of selected compounds of this invention were compared to those of Triclosan™ and hydrocortisone in a modified […] (TPA) mouse ear inflammation assay. TPA was used as an inflammogen rather than croton oil because TPA gives a well characterized inflammatory response at very low concentrations. […] This model can therefore be used to study the pharmacokinetics, clinical efficacy and adverse side effects of anti-inflammatory agents. To quantitate inflammation, ear punches from treated animals were used to measure increased ear mass (edema) and myeloperoxidase (MPO) activity. For the inhibition studies, ear biopsies were weighed six hours after treatment with TPA and the simultaneous application of the compound of the present invention. All the compounds were diluted in acetone. Following this, the biopsies were frozen and subsequently used to measure inhibition of MPO activity, an estimate of polymorphonuclear (PMN) […] activity in the affected area. Percent inhibition of edema was calculated as [c-t]/c x 100, where c and t are increases in ear weight in control and treated mice, respectively.
As a confirmation of the anti-inflammatory activity and in an attempt to further define the mechanism of inhibition produced by the alkylsulfonylsalicylanilides, MPO activity was measured in representative ear biopsies. The enzyme was extracted from the tissue by using a combination of homogenization in the presence of a detergent, freezing and thawing, and sonication. The change in absorbance was measured with time using o-dianisidine and H2 O2 as the substrate in an automated plate reader. As shown below, TPA-induced increase in MPO was inhibited in TMF-12 treated ears at a dose approximately 10-fold less than that which inhibited edema.

CCCCCCCCCCCCS(=O)(=O)c1ccc(O)c(C(=O)Nc2cccc(C(F)(F)F)c2)c1 [TMF-12]
Inhibition of ear weight gain ([1]; 500μg/ear, first experiment): 28% | Inhibition of ear weight gain ([1]; 1.25 mg/ear): 37.5% | Inhibition of ear weight gain ([1]; 2.5 mg/ear): 27.3% | Inhibition of ear weight gain ([1]; 5.0 mg/ear (printed 'mc/ear' for Trifluorosal)): 34.4% | Activity in chronic assay (in words) ([1]; 1.25-5 mg/ear, remaining experiments): demonstrated consistent activity | % Inhibition of Ear Weight Gain, Actual ([1]; multiple doses of TPA): 37.3% | % Inhibition of Ear Weight Gain, Relative to Hydrocortisone (HCV) = 100% ([1]; multiple doses of TPA, head prints 1.25 eg/ear): 61.8% | MPO Activity (myeloperoxidase (MPO); TMF-12 0.8 mg/20 ml): 590.2 D OD/min | MPO Activity (myeloperoxidase (MPO); TMF-12 1.24 mg/20 ml): 327.3 D OD/min | MPO Activity (myeloperoxidase (MPO); TMF-12 8 mg/20 ml): 56.5 D OD/min | MPO Activity (myeloperoxidase (MPO); TMF-12 12.4 mg/20 ml): 54.8 D OD/min | MPO Activity (myeloperoxidase (MPO); TMF-12 80 mg/20 ml): 27.6 D OD/min | MPO Activity (myeloperoxidase (MPO); TMF-12 124 mg/20 ml): 21 D OD/min | Dose inhibiting MPO increase, fold less than dose inhibiting edema (myeloperoxidase (MPO); compared with edema inhibition): approximately 10 fold
